For the experiment, the target named is human TRPA1 channel (Homo sapiens (Human), UniProt O75762). Put plainly: hTRPA1 CHO Ca2+ FLIPR Tetra assay: block of cinnamaldehyde induced calcium influx. The format is cell-based. The note with it: CHO cells expressing TRPA1, Hill coefficient fixed to 1.5. The gist of the method: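 TRPA1-expressing CHO cells loaded with calcium indicator dye (1 h 37° C, then 15 min room temperature) in HBSS/20 mM HEPES pH 7.4/0.02% BSA. IC50 from fits with fixed Hill coefficient.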

[1] abbreviates: read-out: hTRPA1 IC50 10 min, 10 minutes incubation with compound before cinnamaldehyde (about EC80).
The mark [2] stands for this setting: read-out: hTRPA1 IC50 90 min, 90 minutes incubation with compound before cinnamaldehyde (about EC80).

Counter-ions that a name gives are not always drawn. Like-named read-outs stand apart in the source and are kept apart here.

The source of these data is patent US10710994B2, “Oxadiazole transient receptor potential channel inhibitors” (Genentech, Inc., priority 2018, dated 2020).

human TRPA1 channel, sequence (O75762 whole entry): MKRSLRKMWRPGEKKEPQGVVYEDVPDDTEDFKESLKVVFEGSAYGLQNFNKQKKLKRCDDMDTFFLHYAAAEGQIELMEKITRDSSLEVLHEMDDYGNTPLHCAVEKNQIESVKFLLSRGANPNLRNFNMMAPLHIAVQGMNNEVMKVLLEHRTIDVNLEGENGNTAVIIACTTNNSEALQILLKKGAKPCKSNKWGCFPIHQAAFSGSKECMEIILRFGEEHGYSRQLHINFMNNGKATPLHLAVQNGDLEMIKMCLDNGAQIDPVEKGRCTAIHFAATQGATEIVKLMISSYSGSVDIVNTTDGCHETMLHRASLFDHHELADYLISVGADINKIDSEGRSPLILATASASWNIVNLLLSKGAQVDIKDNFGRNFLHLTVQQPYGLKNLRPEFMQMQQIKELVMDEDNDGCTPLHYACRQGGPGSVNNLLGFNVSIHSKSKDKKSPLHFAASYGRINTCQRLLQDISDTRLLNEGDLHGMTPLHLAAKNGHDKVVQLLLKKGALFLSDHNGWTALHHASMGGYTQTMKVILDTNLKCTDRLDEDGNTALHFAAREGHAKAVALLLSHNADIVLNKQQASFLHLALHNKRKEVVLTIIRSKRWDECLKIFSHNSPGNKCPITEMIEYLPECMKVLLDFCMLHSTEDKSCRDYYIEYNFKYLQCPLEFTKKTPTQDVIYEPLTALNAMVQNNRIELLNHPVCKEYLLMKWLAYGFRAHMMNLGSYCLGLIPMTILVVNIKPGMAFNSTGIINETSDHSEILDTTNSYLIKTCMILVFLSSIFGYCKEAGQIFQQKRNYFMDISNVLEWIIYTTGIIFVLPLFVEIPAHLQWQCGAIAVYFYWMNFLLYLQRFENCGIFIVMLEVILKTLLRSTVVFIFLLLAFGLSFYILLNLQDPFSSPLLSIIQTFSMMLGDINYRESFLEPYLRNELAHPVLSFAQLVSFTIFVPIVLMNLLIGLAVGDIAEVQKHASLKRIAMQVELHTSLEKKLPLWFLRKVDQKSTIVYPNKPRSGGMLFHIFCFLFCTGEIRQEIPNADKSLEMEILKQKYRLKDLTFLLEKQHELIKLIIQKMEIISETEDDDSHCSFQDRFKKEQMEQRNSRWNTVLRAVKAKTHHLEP

Usually IC50 stands for the concentration needed to halve the response being measured. Take `Nc1nc2ncn(Cc3nc([C@@H]4CO[C@@H](c5ccc(F)cc5)C4)no3)c(=O)c2s1` [Example 126, 2-amino-6-((3-((3R,5R)-5-(4-fluorophenyl)tetrahydrofuran-3-yl)-1,2,4-oxadiazol-5-yl)methyl) thiazolo[4,5-d]pyrimidin-7(6H)-one]: the IC50 is 89.9 nM under setting [1] and 36 nM under setting [2].

Consider `Cc1cnn2nc(N)n(Cc3nc([C@@H]4CO[C@@H](c5cccc(F)c5)C4)no3)c(=O)c12` [Example 127, 2-amino-3-((3-((3R,5R)-5-(3-fluorophenyl)tetrahydro-3-yl)-1,2,4-oxadiazol-5-yl)methyl)-5-methylpyrazolo[5,1-f] [1,2,4]triazin-4(3H)-one], for which the half-maximal inhibitory concentration (IC50) reads like this: under setting [1], 17.9 nM; under setting [2], 2.9 nM.

Turning to `Cc1cnc(N)n(Cc2nc([C@@H]3CO[C@@H](c4ccc(Cl)cc4)C3)no2)c1=O` [Example 128, 2-amino-3-((3-((3R,5R)-5-(4-chlorophenyl)tetra-hydrofuran-3-yl)-1,2,4-oxadiazol-5-yl)methyl)-5-methylpyrimidin-4(3H)-one], the 50% inhibitory concentration (IC50) runs as follows: under setting [1], 146 nM; under setting [2], 67 nM.

Consider `Nc1nc2ncn(Cc3nc([C@@H]4CO[C@@H](c5ccc(Cl)cc5)C4)no3)c(=O)c2s1` [Example 129, 2-amino-6-((3-((3R,5R)-5-(4-chlorophenyl)tetrahydrofuran-3-yl)-1,2,4-oxadiazol-5-yl)methyl)thiazolo[4,5-d] pyrimidin-7(6H)-one], for which the IC50 runs as follows: under setting [1], 15.1 nM; under setting [2], 5.6 nM.

On to `Nc1nc(=O)c2cccnc2n1Cc1nc([C@@H]2CO[C@@H](c3ccc(F)cc3)C2)no1` [Example 130, 2-amino-1-((3-((3R,5R)-5-(4-fluorophenyl)tetra-hydrofuran-3-yl)-1,2,4-oxadiazol-5-yl)methyl) pyrido[2,3-d]pyrimidin-4(1H)-one], for which the IC50 reads like this: under setting [1], 83.3 nM; under setting [2], 15 nM.

As to `Cn1cnc2c(C#N)nn(Cc3nc([C@@H]4CO[C@@H](c5ccc(Cl)cc5)C4)no3)c(=O)c21` [Example 131, 6-((3-((3R,5R)-5-(4-chlorophenyl)tetrahydro-furan-3-yl)-1,2,4-oxadiazol-5-yl)methyl)-1-methyl-7-oxo-6,7-dihydro-1H-imidazo[4,5-d]pyridazine-4-carbonitrile], the half-inhibitory concentration (IC50) runs as follows: under setting [1], 7.42 nM; under setting [2], 3.1 nM.

As for `Cc1ccnc2nc(N)n(Cc3nc([C@@H]4CO[C@@H](c5ccc(F)cc5)C4)no3)c(=O)c12` [Example 133, 2-amino-3-((3-((3R,5R)-5-(4-fluorophenyl)tetra-hydrofuran-3-yl)-1,2,4-oxadiazol-5-yl)methyl)-5-methylpyrido[2,3-d] pyrimidin-4(3H)-one], the half-maximal inhibitory concentration (IC50) is, setting by setting: under setting [1], 13.4 nM; under setting [2], 1.4 nM.

Take `Cc1ccnc2c1c(=O)nc(N)n2Cc1nc([C@@H]2CO[C@@H](c3ccc(Cl)cc3)C2)no1` [Example 134, 2-amino-1-((3-((3R,5R)-5-(4-chlorophenyl)tetrahydro-furan-3-yl)-1,2,4-oxadiazol-5-yl)methyl)-5-methylpyrido[2,3-d] pyrimidin-4(1H)-one]: the IC50 by setting is: under setting [1], 20 nM; under setting [2], 6 nM.

As for `Cc1ccnc2nc(N)n(Cc3nc([C@@H]4CO[C@@H](c5ccc(Cl)cc5)C4)no3)c(=O)c12` [Example 135, 2-amino-3-((3-((3R,5R)-5-(4-chlorophenyl)tetrahydro-furan-3-yl)-1,2,4-oxadiazol-5-yl)methyl)-5-methylpyrido[2,3-d] pyrimidin-4(3H)-one], the IC50 amounted to 10.4 nM under setting [1] and 1.5 nM under setting [2].

Consider `Cn1cnc2nc(N)n(Cc3nc([C@@H]4CO[C@@H](c5ccc(C(F)(F)F)cc5)C4)no3)c(=O)c21` [Example 136, 2-amino-7-methyl-1-((3-((3R,5R)-5-(4-(trifluoromethyl)phenyl)tetrahydrofuran-3-yl)-1,2,4-oxadiazol-5-yl)methyl)-1,7-dihydro-6H-purin-6-one], for which the concentration for half-maximal inhibition (IC50) reads like this: under setting [1], 97.3 nM; under setting [2], 11 nM.

Consider `Cc1nc2ncn(C)c2c(=O)n1Cc1nc([C@@H]2CO[C@@H](c3ccc(F)cc3)C2)no1` [Example 137, 1-((3-((3R,5R)-5-(4-fluorophenyl)tetrahydro-furan-3-yl)-1,2,4-oxadiazol-5-yl)methyl)-2,7-dimethyl-1,7-dihydro-6H-purin-6-one], for which the IC50 by setting is: under setting [1], 64.1 nM; under setting [2], 13 nM.

In the case of `Cc1cnn2ncn(Cc3nc([C@@H]4CO[C@@H](c5ccc6cnn(C)c6c5)C4)no3)c(=O)c12` [Example 138, 5-methyl-3-((3-((3R,5R)-5-(1-methyl-1H-indazol-6-yl)tetrahydrofuran-3-yl)-1,2,4-oxadiazol-5-yl)methyl)pyrazolo[5,1-f][1,2,4]triazin-4(3H)-one], the IC50 runs as follows: under setting [1], 8.26 nM; under setting [2], 2.3 nM.

`Cc1cnn2ncn(Cc3nc([C@@H]4CO[C@@H](c5ccc6cn[nH]c6c5)C4)no3)c(=O)c12` [Example 139, 3-((3-((3R,5R)-5-(1H-indazol-6-yl)tetrahydrofuran-3-yl)-1,2,4-oxadiazol-5-yl)methyl)-5-methylpyrazolo[5,1-f] [1,2,4]triazin-4(3H)-one]: the IC50 is 19.5 nM under setting [1] and 7.5 nM under setting [2].

With `Cn1nnc2cnn(Cc3nc([C@@H]4CO[C@@H](c5ccc(Cl)cc5)C4)no3)c(=O)c21` [Example 140, 5-((3-((3R,5R)-5-(4-chlorophenyl)tetrahydro-furan-3-yl)-1,2,4-oxadiazol-5-yl)methyl)-3-methyl-3,5-dihydro-4H-[1,2,3]triazolo[4,5-d]pyridazin-4-one], the 50% inhibitory concentration (IC50) is, setting by setting: under setting [1], 80.1 nM; under setting [2], 43 nM.

As to `Cn1cnc2nnn(Cc3nc([C@@H]4CO[C@@H](c5ccc(Cl)cc5)C4)no3)c(=O)c21` [Example 141, 3-((3-((3R,5R)-5-(4-chlorophenyl)tetrahydro-furan-3-yl)-1,2,4-oxadiazol-5-yl)methyl)-5-methyl-3,5-dihydro-4H-imidazo[4,5-d][1,2,3] triazin-4-one], the IC50 under setting [1] came to 30.9 nM and the IC50 under setting [2] is 11 nM.

On to `Cc1cnn2ncn(Cc3nc([C@@H]4CO[C@@H](c5ccc6ncsc6c5)C4)no3)c(=O)c12` [Example 142, 3-((3-((3R,5R)-5-(benzo[d]thiazol-6-yl)tetrahydrofuran-3-yl)-1,2,4-oxadiazol-5-yl)methyl)-5-methylpyrazolo[5,1-f] [1,2,4]triazin-4(3H)-one], for which the IC50 under setting [1] is 81.7 nM and the IC50 under setting [2] worked out at 40 nM.

For `Nc1nn2ncc(Cl)c2c(=O)n1Cc1nc([C@@H]2CO[C@@H](c3ccc(F)cc3)C2)no1` [Example 143, 2-amino-5-chloro-3-((3-((3R,5R)-5-(4-fluorophenyl)tetrahydro-furan-3-yl)-1,2,4-oxadiazol-5-yl)methyl)pyrazolo[5,1-f][1,2,4]triazin-4(3H)-one], the 50% inhibitory concentration (IC50) is 56.9 nM under setting [1] and 6.6 nM under setting [2].

As to `Cn1cnc2nc(N)n(Cc3nc([C@@H]4CO[C@@H](c5ccc(F)cc5)C4)no3)c(=O)c21` [Example 144, 2-amino-1-((3-((3R,5R)-5-(4-fluorophenyl)tetrahydro-furan-3-yl)-1,2,4-oxadiazol-5-yl)methyl)-7-methyl-1,7-dihydro-6H-purin-6-one], the IC50 worked out at 56.9 nM under setting [1] and 6.6 nM under setting [2].

As for `Cc1c(N)nn2ncn(Cc3nc([C@@H]4CO[C@@H](c5ccc(F)cc5)C4)no3)c(=O)c12` [Example 145, 6-amino-3-((3-((3R,5R)-5-(4-fluorophenyl)tetrahydro-furan-3-yl)-1,2,4-oxadiazol-5-yl)methyl)-5-methylpyrazolo[5,1-f][1,2,4]triazin-4(3H)-one], the IC50 under setting [1] came out at 9.28 nM and the IC50 under setting [2] was determined as 46 nM.

For `O=c1c2c(cnn1Cc1nc([C@@H]3CO[C@@H](c4ccc(Cl)cc4)C3)no1)CNCC2` [Example 146, 2-((3-((3R,5R)-5-(4-chlorophenyl)tetrahydro-furan-3-yl)-1,2,4-oxadiazol-5-yl)methyl)-5,6,7,8-tetrahydropyrido[3,4-d] pyridazin-1(2H)-one hydrochloride], the IC50 is 2600 nM under setting [1] and 97 nM under setting [2].

Turning to `O=c1c2cccnc2ncn1Cc1nc([C@@H]2CO[C@@H](c3ccc(F)cc3)C2)no1` [Example 147, 3-((3-((3R,5R)-5-(4-fluorophenyl)tetrahydro-furan-3-yl)-1,2,4-oxadiazol-5-yl)methyl)pyrido[2,3-d]pyrimidin-4(3H)-one], the concentration for half-maximal inhibition (IC50) under setting [1] was determined as 107 nM and the IC50 under setting [2] stood at 82 nM.

As to `Cc1cnn2ncn(Cc3nc([C@@H]4CO[C@@H](c5ccc(Cl)cn5)C4)no3)c(=O)c12` [Example 148, 3-((3-((3R,5R)-5-(5-chloropyridin-2-yl)tetrahydrofuran-3-yl)-1,2,4-oxadiazol-5-yl)methyl)-5-methylpyrazolo[5,1-f] [1,2,4]triazin-4(3H)-one], the IC50 runs as follows: under setting [1], 21.3 nM; under setting [2], 14 nM.

Regarding `Nc1nn2c(C(F)(F)F)ncc2c(=O)n1Cc1nc([C@@H]2CO[C@@H](c3ccc(Cl)cc3)C2)no1` [Example 149, 2-amino-3-((3-((3R,5R)-5-(4-chlorophenyl)tetrahydro-furan-3-yl)-1,2,4-oxadiazol-5-yl)methyl)-7-(trifluoromethyl)imidazo [5,1-f][1,2,4]triazin-4(3H)-one], the IC50 is, setting by setting: under setting [1], 4.48 nM; under setting [2], 2.1 nM.

For `Cn1ncc2nc(N)n(Cc3nc([C@@H]4CO[C@@H](c5ccc(Cl)cc5)C4)no3)c(=O)c21` [Example 150, 5-amino-6-((3-((3R,5R)-5-(4-chlorophenyl)tetrahydro-furan-3-yl)-1,2,4-oxadiazol-5-yl)methyl)-1-methyl-1,6-dihydro-7H-pyrazolo[4,3-d] pyrimidin-7-one], the 50% inhibitory concentration (IC50) by setting is: under setting [1], 3.19 nM; under setting [2], 1.7 nM.
